Experimental data reported in PMC12459184, “Design, synthesis, and bioevaluation of pyrazole-containing tubulin polymerisation inhibitors based on conformational constraint strategy” (Journal of Enzyme Inhibition and Medicinal Chemistry, 2025).
Read-outs that look alike come from different tables or passages of the source.

What was measured:
[1] = system: SGC-7901 cells; experiment: MTT antiproliferative assay, SGC-7901; assay type: cell-based; conditions: Homo sapiens, read-out: IC50 (μM) ± SD SGC-7901
Description: (§1) The in vitro antiproliferative activities of all target compounds 4a−k, 5a−h, and 6a−h were assayed by MTT method using human gastric cancer cell line SGC-7901 and human breast cancer cell line MCF-7.
(§2) All cell lines tested in this study were purchased from the American Type Culture Collection (ATCC, Manassas, VA). SGC-7901 (human gastric adenocarcinoma), HCT-116 (human colon carcinoma), and A549 (human pulmonary carcinoma) cells were cultured in RPMI-1640 medium containing 10% foetal serum (FBS) and 1% penicillin-streptomycin solution (100×). MCF-7 (human breast carcinoma) cells were cultured in DMEM medium containing 10% foetal serum (FBS) and 1% penicillin-streptomycin solution (100×). PC-3 (human prostate carcinoma) cells were cultured in Ham’s F-12K medium containing 10% foetal serum (FBS) and 1% penicillin-streptomycin solution (100×). All cells were cultured at 37 °C in a humidified atmosphere containing 5% CO2.
(§3) Cells grown in logarithmic phase were harvested and seeded onto 96-well cell plates at a density of 4 ∼ 5 × 10^3 cells per well (various from cell type) and were cultured for 24 h. Different concentrations of compounds were added into the wells, and the cells were cultured for another 72 h. The medium was removed, then 20 μL of MTT (5 mg/mL in PBS) was added to each well and the cells were incubated for 4 h. 150 μL of DMSO was added to each well to dissolve the formazan, and the absorbance at 490 nm of each well was measured by a microplate reader. IC50 values were calculated by SPSS software.

[2] = system: MCF-7 cells; experiment: MTT antiproliferative assay, MCF-7; assay type: cell-based; conditions: Homo sapiens, read-out: IC50 (μM) ± SD MCF-7
Description: as §1, §2, §3

[3] = system: HCT-116 cells; experiment: MTT antiproliferative assay, HCT-116; assay type: cell-based; conditions: Homo sapiens, 72 h drug exposure, read-out: IC50 (μM) ± SD HCT-116
Description: as §2, §3

[4] = system: PC-3 cells; experiment: MTT antiproliferative assay, PC-3; assay type: cell-based; conditions: Homo sapiens, 72 h drug exposure, read-out: IC50 (μM) ± SD PC-3
Description: as §2, §3

[5] = system: human umbilical vein endothelial cells (HUVEC); experiment: MTT toxicity assay, normal cells HUVEC; assay type: cell-based; conditions: for IC50: Homo sapiens, HUVEC, read-out: IC50 (μM) ± SD HUVEC; for SI-H: SI-H = IC50 (HUVEC)/IC50 (PC-3)
Description: The toxicity of compounds 4k and 5a was also tested by using human umbilical vein endothelial cells (HUVEC) and human liver cells (L02).
as §3

[6] = system: PC-3 cells; experiment: Cell cycle analysis by flow cytometry; assay type: cell-based, human; conditions: 24 h, vehicle 15%
Description: The G2/M phase of cell cycle involves mass physiological activities of microtubules, and tubulin polymerisation inhibitors could arrest cell cycle in G2/M phase by inhibiting microtubule polymerisation.
PC-3 cells in logarithmic phase were harvested and seeded onto 6-well cell plates at a density of 2.5 × 10^5 cells per well, and were cultured for 24 h. […] The cells were digested using trypsin and the suspended cells were harvested. Then the cells were washed with PBS and fixed in 75% ice-cold ethanol at 4 °C overnight. The fixed cells were harvested by centrifugation and washed with PBS, resuspended in 535 μL buffer containing 10 μL RNase (50 ×) and 25 μL PI (20 ×). After incubation at 37 °C in the dark for 30 min, the samples were filtered by nylon screen and detected by FACScan flow cytometry (BectoneDickinson, Franklin Lakes, NJ, USA).

[7] = system: cyclin-dependent kinase 1 (CDK1); experiment: Western blot assay, CDK1; assay type: cell-based, human; conditions: PC-3 cells, at the concentrations of 40 and 20 nM
Description: (§4) Additionally, western blot assay was employed to measure the expression level of cell cycle-related proteins cyclin-dependent kinase 1 (CDK1) and Cyclin B1.
(§5) PC-3 cells in logarithmic phase were harvested and seeded onto culture plates, and were cultured for 24 h. […] The proteins of PC-3 cells were extracted by RIPA buffer containing 1% PMSF (Beyotime Biotechnology, China). The protein concentration was measured by BCA Assay Kit (SEVEN Biotech, China). Equal amounts and concentration of protein were diluted in 5× loading buffer (Beyotime, China) and denatured by boiled for 5 min. Protein samples were separated on 12.5% SDS-PAGE gels (EpiZyme, China) and transferred to PVDF membranes (Millipore Corporation, Billerica, MA, USA). The membranes were blocked in QuickBlockTM Block Buffer (SEVEN Biotech, China) for 10 min at room temperature. Then the membranes were incubated with the primary antibodies overnight at 4 °C, including Cyclin B1 (1:2000, Proteintech, China), CDK1 (1:5000, Proteintech, China), BAX (1:5000, Proteintech, China), Bcl2 (1:1000, Proteintech, China), Caspase 9/p35/p10 (1:1000, Proteintech, China), and β-actin (1:20 000, Proteintech, China). […] The protein signals were detected by using chemiluminescent reagents kit (NCM Biotech, China) and visualised with ChemiDocImaging System (Tanon 5200, China). Protein expressions was quantified by using Fiji/ImageJ software.

[8] = system: Cyclin B1; experiment: Western blot assay, Cyclin B1; assay type: cell-based, human; conditions: PC-3 cells, at the concentrations of 20 and 40 nM
Description: as §4, §5

[9] = system: Bcl-2; experiment: Western blot assay, Bcl-2; assay type: cell-based, human; conditions: PC-3 cells
Description: The expression of cell apoptosis-related proteins (Bax, Bcl-2, and cleaved caspase-9) after treatment of 4k and 5a was also measured by western blot assay.
as §5

[10] = system: PC-3 cells; experiment: Wound healing assay; assay type: cell-based, human; conditions: 24 h, control group 48.7%
Description: To investigate the effect of 4k and 5a on cell migration, wound healing assay was used on PC-3 cells.
PC-3 cells in logarithmic phase were harvested and seeded onto 12-well cell plates at a density of 2.5 × 10^5 cells per well, and were cultured for 24 h. Scratches were made in confluent monolayers using 200 μL pipette tip, and the cells were washing twice with PBS to remove all the non-adherent cells. […] Images of wounds were taken at 0 h and 24 h and analysed by Fiji/ImageJ software.

| SMILES | IC50 ([1]; SGC-7901, 72 h drug exposure, MTT assay) [µM] | IC50 ([2]; MCF7, 72 h drug exposure, MTT assay) [µM] | IC50 [3] [µM] | IC50 [4] [µM] | IC50 ([5]; 72 h drug exposure, MTT assay, normal cells) [µM] | SI-H [5] | proportion of cells in G2/M phase ([6]; 10–40 nM) | level of CDK1 [7] | level of Cyclin B1 [8] | expression of Bcl-2 ([9]; western blot, 10, 20, 40 nM) | recover percentage of scratches ([10]; PC-3, 10 nM) [%] | recover percentage of scratches ([10]; PC-3, 20 nM) [%] | IC50 ([1]; SGC-7901, 72 h) [µM] | IC50 ([2]; MCF7, 72 h) [µM] | IC50 ([5]; 72 h) [µM] | proportion of cells in G2/M phase ([6]; 70 nM) [%] | proportion of cells in G2/M phase ([6]; 100 nM) [%] | expression of Bcl-2 ([9]; western blot, 5, 20, 40 nM) |
| --- | --- | --- | --- | --- | --- | --- | --- | --- | --- | --- | --- | --- | --- | --- | --- | --- | --- | --- |
| COc1cc(C(=O)c2nn(-c3ccc(N)cc3)cc2N)cc(OC)c1OC [4k, (4-amino-1–(4-aminophenyl)-1H-pyrazol-3-yl)(3,4,5-trimethoxyphenyl)methanone] | 0.017 ± 0.002 | 0.031 ± 0.005 | 0.01 ± 0.001 | 0.015 ± 0.004 | 0.57 ± 0.167 | 39.11 | 33–71% | increase | increase | significantly decreased | 42.7 | 20.2 | – | – | – | – | – | – |
| COc1cc(C2=NCC(=O)Nc3cn(-c4ccccc4)nc32)cc(OC)c1OC [5a, 2-Phenyl-8–(3,4,5-trimethoxyphenyl)-2,6-dihydropyrazolo[4,3-e][1,4]diazepin-5(4H)-one] | – | – | 0.163 ± 0.038 | 0.006 ± 0.002 | – | 147.7 | – | increase | increase | – | 32.3 | 23.3 | 0.018 ± 0.003 | 1.78 ± 0.617 | 0.86 ± 0.229 | 35 | 71 | significantly decreased |
